Data published in patent US10633542B2, “Azacyanine dyes and use thereof” (Ecole Polytechnique Fédérale de Lausanne (EPFL), priority 2018, dated 2020).
“And” between values parts separate entries of the source, which are not always exact repeats. Equal values may be shown once.

Legend:
[1] = cited from earlier work
[2] = in methanol, calibration standard; cited from earlier work
[3] = test system: sliced skin tissue of a nude mouse (dry-ice treated); assay: Ex vivo cell death assay, cryogenic tissue damage; conditions: 1 uM, 5 uM, 10 uM, 10 min at room temperature
Protocol: Ex vivo cell death assay for compounds, VI and XIV were studied using a method of cryogenic tissue damage. Briefly, a bar of a dry ice was applied to sliced skin tissue of a nude mouse recently sacrificed in a petri dish for a period of 60 sec. Subsequently, the skin tissue samples were incubated with different concentrations of dye VI and XIV (1 uM, 5 uM, and 10 uM) for 10 min at room temperature.

[4] = Shortwave infrared / NIR-II imaging with SWIR camera system; format: physicochemical; conditions: commercial SWIR camera system
From the text: It was already shown that in the NIR-II region there is less absorption and […] enabling 2 times deeper imaging with much higher resolution respectively. […] The results are shown on FIG. 24. The camera used for obtaining the data has the following specs: “Princeton NIRvana detector, IsoPlane SCT320 spectrometer, Nikon inverted microscope, 658 nm, 785 nm and Xenon lamp/monochromator illumination sources” The other derivatives of aza-cyanine analogs covered in the current invention are currently being tested to find the optimal SWIR imaging dye.

A431 cells = assay: Cell uptake in live cells; format: cell-based; conditions: for Average values: average of wells; for Avg Radiant Efficiency: single wells
Protocol: Therefore, we performed such experiments in live cells with Compound VIII compound. […] The following procedure was used:
Cells were grown in 96 well plates to confluent level. Media was removed, cells washed with PBS, incubated for a set time (5, 15, or 30 minutes) at varying concentrations of the dye (5 μM, 10 μM, and 25 μM) in PBS. Dye was removed, cells washed twice with PBS, then PBS added for imaging.
The values for each well were consistent with that of the control group of wells that were not exposed to the dye in wells A1-A3. The bright well at F12 is a solution of Compound VIII at 5 μM in PBS to insure imaging of the dye is occurring.

necrotic tissue = assay: Necrosis imaging in vivo after cardiotoxin injection; set-up: species or system mouse
Protocol: Cardiotoxin (10 μM in 50 μL of PBS) was injected into the right thigh of the mouse and 50 μL of PBS was injected into the left thigh. 24 hours post-injection of toxin, Compound VIII ([…] in 100 μL PBS) was injected intravenously into the tail of the mouse. […] The results are shown below in FIG. 20-22. The brightnesses of the images are not on scale with one another. The quantification is shown on the same graph. Significant signal over-background ratios resulting from accumulation of the dye in necrosis areas observed as early as 10 min post-injection of the Compound VIII making it ideal for clinical translation.

## CC1(C)C(/C=C/C=C/C=C/C=C2\N(CCCCS(=O)(=O)O)c3ccc4ccccc4c3C2(C)C)=[N+](CCCCS(=O)(=O)[O-])c2ccc3ccccc3c21 [ICG, Indocyanine Green]
[1]
  solubility in saline: not readily soluble
[2]
  fluorescence quantum yield (QY): 7.8%

## CC1(C)C2=CC=CN(CCCCCC(=O)O)C2=N/C1=C/C=C1\C[N+](C)(C)CC(/C=C/C2=Nc3c(ccc[n+]3CCCCCC(=O)O)C2(C)C)=C1Cl [dye VI]
[3]
  fluorescence at the site of focal dry-ice treatment: strong fluorescence signal
  signal from the viable cells: no signal
[4]
  absorption in the NIR-II region: absorbs in the NIR-II region

## CN1C=CC=C2C1=N/C(=C\C=C1/C[N+](C)(C)CC(/C=C/C3=Nc4c(ccc[n+]4C)C3(C)C)=C1Cl)C2(C)C.I [Compound VIII]
[4]
  absorption in the NIR-II region: absorbs in the NIR-II region
A431 cells; 5 μM, 5 minutes
  Average values: 1.49E+07 [p/s/cm^2/sr]/[μW/cm^2]
  Avg Radiant Efficiency: 1.64E+07 [p/s/cm^2/sr]/[μW/cm^2] and 1.47E+07 [p/s/cm^2/sr]/[μW/cm^2] and 1.36E+07 [p/s/cm^2/sr]/[μW/cm^2]
A431 cells; 5 μM, 15 minutes
  Average values: 1.24E+07 [p/s/cm^2/sr]/[μW/cm^2]
  Avg Radiant Efficiency: 1.29E+07 [p/s/cm^2/sr]/[μW/cm^2] and 1.23E+07 [p/s/cm^2/sr]/[μW/cm^2] and 1.19E+07 [p/s/cm^2/sr]/[μW/cm^2]
A431 cells; 5 μM, 30 minutes
  Average values: 1.17E+07 [p/s/cm^2/sr]/[μW/cm^2]
  Avg Radiant Efficiency: 1.18E+07 [p/s/cm^2/sr]/[μW/cm^2] and 1.16E+07 [p/s/cm^2/sr]/[μW/cm^2] and 1.17E+07 [p/s/cm^2/sr]/[μW/cm^2]
A431 cells; 10 μM, 5 minutes
  Average values: 1.39E+07 [p/s/cm^2/sr]/[μW/cm^2]
  Avg Radiant Efficiency: 1.50E+07 [p/s/cm^2/sr]/[μW/cm^2] and 1.39E+07 [p/s/cm^2/sr]/[μW/cm^2] and 1.28E+07 [p/s/cm^2/sr]/[μW/cm^2]
A431 cells; 10 μM, 15 minutes
  Average values: 1.20E+07 [p/s/cm^2/sr]/[μW/cm^2]
  Avg Radiant Efficiency: 1.24E+07 [p/s/cm^2/sr]/[μW/cm^2] and 1.18E+07 [p/s/cm^2/sr]/[μW/cm^2] and 1.17E+07 [p/s/cm^2/sr]/[μW/cm^2]
A431 cells; 10 μM, 30 minutes
  Average values: 1.15E+07 [p/s/cm^2/sr]/[μW/cm^2]
  Avg Radiant Efficiency: 1.16E+07 [p/s/cm^2/sr]/[μW/cm^2] and 1.15E+07 [p/s/cm^2/sr]/[μW/cm^2] and 1.13E+07 [p/s/cm^2/sr]/[μW/cm^2]
A431 cells; 25 μM, 5 minutes
  Average values: 1.33E+07 [p/s/cm^2/sr]/[μW/cm^2]
  Avg Radiant Efficiency: 1.39E+07 [p/s/cm^2/sr]/[μW/cm^2] and 1.34E+07 [p/s/cm^2/sr]/[μW/cm^2] and 1.27E+07 [p/s/cm^2/sr]/[μW/cm^2]
A431 cells; 25 μM, 15 minutes
  Average values: 1.20E+07 [p/s/cm^2/sr]/[μW/cm^2]
  Avg Radiant Efficiency: 1.22E+07 [p/s/cm^2/sr]/[μW/cm^2] and 1.20E+07 [p/s/cm^2/sr]/[μW/cm^2] and 1.19E+07 [p/s/cm^2/sr]/[μW/cm^2]
A431 cells; 25 μM, 30 minutes
  Average values: 1.20E+07 [p/s/cm^2/sr]/[μW/cm^2]
  Avg Radiant Efficiency: 1.20E+07 [p/s/cm^2/sr]/[μW/cm^2]
A431 cells; long incubation periods (30 min), high concentrations (25 uM)
  uptake in live A431 cells: No uptake
A431 cells; wells B1-C10, 5-25 μM, 5-30 minutes
  radiance of wells incubated with the dye compared to that of the control: no significant difference
Necrotic tissue; cardiotoxin in right thigh, dye 40 μmoles in 100 μL PBS intravenously 24 hours later
  targeting of necrotic area in vivo: selectively targets the necrotic area
Necrotic tissue; mouse, intravenous
  clearance route: clears through the kidneys instead of accumulating in the liver
  time post-injection at which significant signal over-background ratios are observed: 10 min

## CC1(C)C2=CC=CN(CCCCCC(=O)O)C2=N/C1=C/C=C1\C[N+](C)(C)CC(/C=C/C2=Nc3c(ccc[n+]3CCCCCC(=O)O)C2(C)C)=C1Oc1ccc(S(=O)(=O)O)cc1.[Na+] [dye XIV]
[3]
  fluorescence at the site of focal dry-ice treatment: strong accumulation of fluorescence
